US20120088827A1 (Profectus Biosciences, Inc., priority 2009, published 2012)

Columns and labels:
NF-κB p65 = target: T1, NF-κB p65 (Homo sapiens, UniProt Q04206); assay: TransAM NF-κB Family DNA Binding ELISA, p65; settings: binding to NF-κB consensus oligonucleotide; read-out: p65 binding IC50
T1 construct: purchased Active Motif
Experimental: (§1) The binding activity of NF-κB heterodimer or homodimer subunits from activated nuclear extracts or purified recombinant NF-κB proteins exposed to the drug compounds was evaluated using the TransAM NF-κB Family binding ELISA (Active Motif). Approximately 3-5 μg of nuclear extracts from TNFα activated Hela or Raji cells (Active Motif) or 20 ng of purified recombinant proteins (p65 and p50 from Active Motif, p52 from Santa Cruz) were incubated for 1 hour at room temperature with 20 μL drug compounds diluted in Complete Lysis buffer without DTT. Treated samples were then transferred to 30 μL Complete Binding Buffer (with DTT) in microplate wells pre-coated with the NF-κB consensus oligonucleotide. […] The plate was incubated for 1 hour at room temperature with gentle shaking and then washed 3 times with 200 μL 1× Wash Buffer. NF-κB p65, p50, p52, RelB, or c-Rel subunits bound to the plate were detected with 100 μL of the primary antibody (diluted 1:1000 in 1× Antibody Buffer) specific for that subunit. The plate was incubated for 1 hour at room temperature and then washed 3 times with 200 μL 1× Wash Buffer. Next, 100 μL of a HRP conjugated goat anti-rabbit antibody (diluted 1:1,000 in 1× Antibody Buffer) was added to each well. The plate was incubated for 1 hour at room temperature and then washed 4 times with 200 μL 1× Wash Buffer. 100 μL of room temperature Developing Solution was added to each well. The reaction was allowed to develop for 2-10 minutes until a medium dark blue color developed (depending on the subunit activity in the lot of extract or lot of recombinant protein used) and then the reaction was stopped with 100 μL Stop Solution yielding a yellow color. Absorbance was recorded using a Becton-Dickinson DTX 880 Multimode Detector at 450 nm with a reference wavelength subtracted at 620 nm.

IL-6 = assay: Inhibition of IL-6 release in LPS-stimulated RAW 264.7 cells; format: cell-based; settings: Mus musculus, RAW264.7; pretreated 2 hours, 1 μg/mL LPS 20-24 hours
Experimental: RAW 264.7 cells were seeded at 4×10^4 cells per well in complete growth medium in 96 well white TC plates with clear bottoms one day prior to the assay. The next day the cells were washed once and 100 μL fresh growth media was added. Cells were pretreated with 0.5 μL from a 6 point 200× dilution series of the test compounds in DMSO for 2 hours. Following pretreatment with the drugs, the inflammatory response was induced by adding 5 μL of a 20 μg/mL solution of LPS (Sigma). The cells were incubated in the presence of the drugs and 1 μg/mL LPS for another 20-24 hours. Typically after treatment the total DMSO was […] of the culture volume and the final concentrations of the compounds were approximately: 40, 20, 10, 1, 0.2 and 0 μM depending on the MW of each compound. Modified dilution series were prepared as needed to get adequate dose response curves without changing the % DMSO. Samples were run in duplicate or triplicate and included DMSO treated control wells with and without LPS stimulation. Drugs with a known activity such as Parthenolide or DHMEQ were run as experimental controls. After 20-24 hours LPS activation, the media supernatant was collected from the cells and replaced with fresh media. The supernatant samples were cleared by centrifugation at 1,000×g for 5 minutes, transferred to fresh storage plates, and stored frozen at −30° C.
After determining the appropriate supernatant dilutions experimentally, mIL-6 levels in the supernatants were quantified using Quantikine™ mouse IL-6 Immunoassay (R&D Systems) according to the manufacturer's protocol. Approximately 50 μL of the supernatants diluted in Calibrator Diluent were added to 50 μL of Assay Diluent in microplate wells pre-coated with an anti-mouse IL-6 capture antibody. Controls included a calibrated positive IL-6 control sample, non-specific binding (NSB) wells containing Calibrator Diluent but no IL-6, and a recombinant mouse IL-6 standard dilution series (10-1000 pg/mL). The plates were incubated at room temperature for 2 hours with shaking and then washed 5 times with 400 μL 1× Wash Buffer. Approximately 100 μL of an HRP-conjugated anti-mouse IL-6 antibody was added to each well to detect IL-6 captured on the plate. The plates were incubated at room temperature for 2 hours and then washed 5 times with 400 μl 1× Wash Buffer. Equal volumes of Color Reagents A and B were mixed and 100 μL of this HRP Substrate Solution was added to each well on the plate. The blue color was allowed to develop for 30 minutes and then the reaction was stopped using 100 μL of Stop Solution yielding a yellow color. Absorbance at 450 nm with a reference wavelength subtracted at 595 nm was recorded using a Becton-Dickinson DTX 880 Multimode Detector.
The concentration of mIL-6 in the unknown samples was determined from a curve-fit of the mIL-6 standard absorbance data and multiplying by the dilution factor. The maximum activity achieved in the absence of the inhibitor (DMSO+LPS treated wells) was arbitrarily given a value of 100%; likewise the minimum activity in the absence of the stimulant (no LPS) was assigned a value of 0% Inhibition of the amount of mIL-6 cytokine released in the drug treated wells was calculated relative to the maximum activation in the DMSO+LPS treated control wells (i.e., % inhibition=100−(drug+LPS treated)/(DMSO+LPS treated)). Dose response curves were used to determine the effective concentration to inhibit 50% of the mIL-6 cytokine released (IC50) by means of a SigmaPlot macro which fits a sigmoidal dose-response curve to the (log 10) μM concentration versus % inhibition. […] This technique yields an objective value for the IC50 provided that 50% inhibition was approached at the concentrations tested.

RelB = target: T2, RelB (Homo sapiens, UniProt Q01201); assay: TransAM NF-κB Family DNA Binding ELISA, RelB
T2 sequence (Q01201 1-579): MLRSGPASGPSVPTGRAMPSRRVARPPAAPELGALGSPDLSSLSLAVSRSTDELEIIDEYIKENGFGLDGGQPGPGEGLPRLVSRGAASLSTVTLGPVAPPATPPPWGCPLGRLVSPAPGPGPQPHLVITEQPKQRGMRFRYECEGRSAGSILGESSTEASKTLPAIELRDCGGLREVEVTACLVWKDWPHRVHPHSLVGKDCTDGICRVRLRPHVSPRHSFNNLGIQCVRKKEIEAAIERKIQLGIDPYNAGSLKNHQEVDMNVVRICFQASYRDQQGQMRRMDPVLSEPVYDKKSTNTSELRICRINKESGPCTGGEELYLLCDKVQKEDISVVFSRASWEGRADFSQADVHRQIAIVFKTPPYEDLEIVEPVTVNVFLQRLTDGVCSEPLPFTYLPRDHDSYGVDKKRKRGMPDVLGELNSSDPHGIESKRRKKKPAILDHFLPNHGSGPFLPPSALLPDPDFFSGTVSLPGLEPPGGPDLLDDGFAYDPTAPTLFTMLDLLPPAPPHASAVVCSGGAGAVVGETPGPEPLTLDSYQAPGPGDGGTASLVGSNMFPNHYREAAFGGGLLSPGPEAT
Experimental: as §1

T1 sequence (Q04206 whole entry): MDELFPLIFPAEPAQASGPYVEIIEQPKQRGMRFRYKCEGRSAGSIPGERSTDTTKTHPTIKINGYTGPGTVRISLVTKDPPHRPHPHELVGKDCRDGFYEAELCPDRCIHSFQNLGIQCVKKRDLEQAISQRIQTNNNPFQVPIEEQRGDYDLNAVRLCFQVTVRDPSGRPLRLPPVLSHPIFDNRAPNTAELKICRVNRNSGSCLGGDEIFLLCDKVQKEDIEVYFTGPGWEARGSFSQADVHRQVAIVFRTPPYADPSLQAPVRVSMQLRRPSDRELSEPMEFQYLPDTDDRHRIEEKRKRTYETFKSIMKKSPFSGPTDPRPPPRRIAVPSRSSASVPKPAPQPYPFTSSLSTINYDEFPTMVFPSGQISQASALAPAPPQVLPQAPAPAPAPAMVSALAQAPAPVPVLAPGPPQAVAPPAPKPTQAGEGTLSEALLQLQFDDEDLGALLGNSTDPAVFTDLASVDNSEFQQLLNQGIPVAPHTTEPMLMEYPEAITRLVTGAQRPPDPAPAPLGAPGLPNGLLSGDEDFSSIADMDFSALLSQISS

SMILES	IC50 (NF-κB p65) [µM]	EC50 (IL-6) [µM]	inhibition at 5 µM (RelB) [%]
CC(C)OC(=O)Oc1ccccc1C(=O)NC1=CC(=O)C2OC2C1OC(=O)OC(C)C (racemic) [Example 2, (±)-3-(2-isopropoxycarbonyloxy-benzoylamino)-5-oxo-7-oxa-bicyclo[4.1.0]hept-3-en-2-yl ester isopropyl ester]	> 376	1.3	2
CC(C)CC(=O)Oc1ccccc1C(=O)NC1=CC(=O)C2OC2C1O (racemic) [Example 1, (±)-2-(2-hydroxy-5-oxo-7-oxabicyclo[4.1.0]hept-3-en-3-ylcarbamoyl)phenyl 3-methylbutanoate]	214	0.5	0
CC(C)OC(=O)OC1C(NC(=O)c2ccccc2O)=CC(=O)C2OC21 (racemic) [Example 8]	336	1.5	2
CC(C)OC(=O)Oc1ccccc1C(=O)NC1=CC(=O)C2OC2C1O (racemic) [Example 7, (±)-2-(2-hydroxy-5-oxo-7-oxabicyclo[4.1.0]hept-3-en-3-ylcarbamoyl)phenyl isopropyl carbonate]	> 480	1.7	0
CCCCC(CC)C(=O)Oc1ccccc1C(=O)NC1=CC(=O)C2OC2C1O (racemic) [Example 5, (±)-2-(2-hydroxy-5-oxo-7-oxabicyclo[4.1.0]hept-3-en-3-ylcarbamoyl)phenyl 2-ethylhexanoate]	> 430	0.44	5

Stronger by IC50 (NF-κB p65), values ahead:

IC50 (NF-κB p65) [µM]	EC50 (IL-6) [µM]	inhibition at 5 µM (RelB) [%]	SMILES
149	0.45	5	CCCC(C)C(=O)Oc1ccccc1C(=O)NC1=CC(=O)C2OC2C1O (racemic) [Example 4, (±)-2-(2-hydroxy-5-oxo-7-oxabicyclo[4.1.0]hept-3-en-3-ylcarbamoyl)phenyl 2-methylpentanoate]
93	0.72	3	O=C(CC1CCCCC1)Oc1ccccc1C(=O)NC1=CC(=O)C2OC2C1O (racemic) [Example 3, (±)-2-(2-hydroxy-5-oxo-7-oxabicyclo[4.1.0]hept-3-en-3-ylcarbamoyl)phenyl 2-cyclohexylacetate]
67	0.35	3	CC(C)(C)CC(=O)Oc1ccccc1C(=O)NC1=CC(=O)C2OC2C1O (racemic) [Example 6, (±)-2-(2-hydroxy-5-oxo-7-oxabicyclo[4.1.0]hept-3-en-3-ylcarbamoyl)phenyl 3,3-dimethylbutanoate]
